Results taken from patent US10287283B2, “Read-through compound prodrugs suppressing premature nonsense mutations” (The Regents of the University of California, priority 2014, dated 2019).
In brackets after ≈: the same amount, converted by molar mass. Structures can show the parent of a compound that is named as a salt. Where two headings read alike, the source gives them in different places. Values belong to the compound of their own block, whether it stands above or below them.

Legend:
[1] = test system: mdx mice; assay: Dystrophin expression after intramuscular injection into TA muscles; type: in vivo; conditions: for dystrophin staining in TA muscles: mdx mice, two weeks after intramuscular injection, compared to DMSO alone; for number of dystrophin positive fibers: TA muscle of mdx mice, intramuscular injection, compound 5 compared with prodrugs
Excerpt: FIG. 8 provides plots showing dystrophin expression after intramuscular injection. Panel (A) provides plots showing dystrophin staining in TA muscles of mdx mice injected with RTC13 or its derivatives and analyzed two weeks after delivery of compounds and compared to muscles treated with DMSO alone. Dystrophin expression was evident in muscles that received the compounds but not in sham-injected muscles. […] (N=4 muscles per compound; scale bar: 50 μ ? ) Panel (B) provides plots showing the number of dystrophin positive fibers determined across the length of the muscle. […] Shown here is the average number of dystrophin positive fibers per cross-sectional area containing the highest number of positives. (N=4 muscles per compound; *: p=0.0008; **: p≤0.04). RTC13: compound 5; […]: compound 16; […]: compound 20; […]: compound 12; and […]: compound 8.

[2] = test system: mdx mice; assay: Forelimb grip test after oral administration; type: in vivo; conditions: oral administration for up to one month
Excerpt: (§1) FIG. 24 provides plots showing functional improvement in mdx mice after oral administration of compound 8 for up to one month. Panel (A) provides plots showing the forelimb grip test that was used to assess the effects of systemic administration of RTCs on muscle strength. […] (N=5 mice per treatment group; *p<0.05; **p<0.005). Panel (B) provides plots showing the results obtained using the wire test. […] (N=6 mice per treatment group; *p<0.05; **p=0.005). 13Y: compound 8.

[3] = test system: normal termination codons; conditions: cited from earlier work
[4] = test system: mdx mice; assay: Wire test after oral administration; type: in vivo; conditions: oral administration for up to one month
Excerpt: as §1

[5] = Serum chemistry analyses; type: in vivo; conditions: mdx mice; for serum levels of albumin, ALP, total bilirubin, LDH, cholesterol, total protein, and glucose: 30 or 60 mg/kg three times per day up to one month
Method: FIG. 26 provides the results of the serum chemistry analyses of mdx mice treated with vehicle, PTC 124 at a dose of 30 mg/kg, PTC 124 at a dose of 60 mg/kg, compound 8 at a dose of 30 mg/kg or compound 8 at a dose of 60 mg/kg three times per day at intervals of 4 hrs for up to one month. […] Values are expressed as mean plus or minus Standard Deviation (±SD). The symbol * indicates statistical significance compared to mdx treated with vehicle only. The symbol † indicates statistical significance compared to wild type (C57BL/10) untreated mice. (N=4 mice per treatment group; p≤0.05). 13Y: compound 8.

[6] = Duchenne boys; cited from earlier work
[7] = target: FLuc (firefly luciferase) reporter (Photinus pyralis, UniProt P08659); conditions: cited from earlier work
FLuc (firefly luciferase) reporter, sequence (P08659 whole entry): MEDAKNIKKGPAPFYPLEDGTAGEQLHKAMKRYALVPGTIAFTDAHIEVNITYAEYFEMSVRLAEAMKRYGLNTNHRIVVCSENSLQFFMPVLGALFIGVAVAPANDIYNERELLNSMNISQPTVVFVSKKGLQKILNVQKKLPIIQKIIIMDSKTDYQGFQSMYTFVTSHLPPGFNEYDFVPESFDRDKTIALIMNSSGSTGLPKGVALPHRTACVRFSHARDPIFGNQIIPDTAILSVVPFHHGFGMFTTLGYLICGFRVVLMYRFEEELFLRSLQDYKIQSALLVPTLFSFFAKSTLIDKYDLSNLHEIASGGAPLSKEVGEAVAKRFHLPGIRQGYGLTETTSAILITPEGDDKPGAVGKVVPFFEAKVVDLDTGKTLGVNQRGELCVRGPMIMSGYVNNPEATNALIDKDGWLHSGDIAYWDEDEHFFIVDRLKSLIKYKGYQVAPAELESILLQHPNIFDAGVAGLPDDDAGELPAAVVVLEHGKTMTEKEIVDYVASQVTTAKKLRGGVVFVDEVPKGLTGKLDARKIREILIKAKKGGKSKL

[8] = phase-I clinical study in cystic fibrosis; cited from earlier work
[9] = Aqueous solubility; type: physicochemical
Method: The solubility of selected compounds was tested and compared to that of comparative compound 5. To 5 mg of each test compound, water was slowly added initially in 0.5 mL and then 0.1 mL increments with vortexing for approximately 1 minute in between each aliquot of water addition and visually inspected for homogeneity. […] Table 1 provides the aqueous solubility of various prodrugs.

[10] = Pharmacokinetics studies after oral administration of compound 8 (tissue levels); type: in vivo; conditions: C57BL/10 mice; for level in heart: oral compound 8 at 10 mg/kg and 30 mg/kg; for level in biceps / level in gastrocnemius: oral compound 8 at 10 mg/kg
Method: (§2) FIG. 19 provides plots showing the results of pharmacokinetics studies in C57BL/10 mice after oral administration of compound 8 in gastrocnemius. The compound was administered at the indicated dosages in 6-8 weeks old C57BL/10 mice and tissues were analyzed in gastrocnemius 15 min, 30 min, 1 hr, 4 hrs, 6 hrs, and 24 hrs after gavage. Compound 8 and RTC13 (compound 5) were not detected in muscles isolated from mice that received compound 8 at a dose of 10 mg/kg. RTC13: compound 5; and 13Y: compound 8.
as §2, with “FIG. 20” for “FIG. 19”, “in biceps.” for “in gastrocnemius.”, “in biceps” for “in gastrocnemius”, “6 hrs” for “6 hrs,”
as §2, with “FIG. 21 provides plots” for “FIG. 19 provides plots”, “8 in heart. The compound” for “8 in gastrocnemius. The compound”, “analyzed in heart 15 min,” for “analyzed in gastrocnemius 15 min,”, “of 10 mg/kg and 30 mg/kg. RTC13:” for “of 10 mg/kg. RTC13:”

[11] = test system: mdx mice; assay: In vitro force measurement of diaphragm muscles (eccentric contractions); type: in vivo
Method: FIG. 25 provides plots showing in vitro force measurement of diaphragm muscles of mdx mice treated with vehicle, compound 8 at a dose of 30 mg/kg or compound 8 at a dose of 60 mg/kg three times per day at intervals of 4 hrs for up to one month. Muscles isolated from untreated and treated mice muscles were subjected to a series of five eccentric contractions with a 5-min rest between contractions. Results were compared to those of wild type (C57BL/10) mice. Panel (A) provides plots showing the decrease in force (in percentage) obtaining following eccentric contractions over the course of the analyses. […] Plot (B) show the results of the decrement in force (in percentage) obtained in mice treated with compound 8. […] (N=4 mice per treatment group, *: p≤0.05; **: p≤0.03). 13Y: compound 8.

[12] = test system: mdx mice; assay: Dystrophin expression in muscles after oral administration for one month; type: in vivo; conditions: three times per day for one month, 30 mg/kg or 60 mg/kg
Method: FIG. 23 provides images of microscopic images obtained from muscles isolated from mdx mice after oral administration of compound 8. Compounds were administered in 6-8 weeks old mdx mice three times per day for one month at the indicated dosages. Dystrophin expression was evident in muscles that received the compounds but not in sham-injected muscles. […] 13Y: compound 8.

[13] = test system: mdx cells; conditions: cells in culture; cited from earlier work
[14] = test system: lymphoblastoid cell lines derived from A-T patients; conditions: each of the three types of nonsense mutations (TGA>TAA>TAG); cited from earlier work
[15] = test system: mdx mice; conditions: cited from earlier work
[16] = thermodynamic from solid, water, ambient pH, room temperature, read-out: Solubility in (mg/mL) water at ambient pH, at room temperature

Compound: gentamicin
- dystrophin staining in TA muscles [1]: Weak expression

Compound: O=C(O)c1cccc(-c2noc(-c3ccccc3F)n2)c1 [PTC124]
- muscle strength, forelimb grip test [2]: No significant improvements
- read-through of normal termination (stop) codons [3]: does not induce ribosomal readthrough of normal stop codons
- average hanging time, wire test [4]: No significant improvements
- serum levels of albumin, ALP, total bilirubin, LDH, cholesterol, total protein, and glucose [5]: within normal range
- efficacy in clinical trials [6]: indeterminate efficacy
- effect on reporter [7]: direct effect on the FLuc (firefly luciferase) reporter
- readthrough activity compared to aminoglycosides [8]: more efficient readthrough activity than aminoglycosides
- tolerability [8]: generally well tolerated

- solubility [9, 16]: 0.1 mg/mL (≈ 226 µM)
Compound: O=C(CN1CCOCC1)/N=C1\NC(=O)/C(=C/c2ccc(-c3ccccc3[N+](=O)[O-])o2)S1 [Compound 20, 2-(morpholin-4-yl)-7V-[(2£′,5Z)-5-{[5-(2-nitrophenyl)furan-2-yl]methylidene}-4-oxo-1,3-thiazolidin-2-ylidene] acetamide]
- number of dystrophin positive fibers [1]: compound 5 showed a significantly higher number of positive fibers

Compound: CC(C)(C)c1ccc(O)c(N=Cc2cccc([N+](=O)[O-])c2)c1 [RTC14]
- dystrophin staining in TA muscles [1]: Weak expression

- level in heart [10]: not detected
- level in biceps [10]: not detected
- level in gastrocnemius [10]: not detected
- serum levels of albumin, ALP, total bilirubin, LDH, cholesterol, total protein, and glucose [5]: within normal range
- blood urea nitrogen (BUN) ([5]; compared to vehicle alone): decrease
- creatinine ([5]; compared to vehicle alone): decrease
- solubility [9, 16]: 3.3 mg/mL
Compound: CN1CCN(CC(=O)/N=C2\NC(=O)/C(=C/c3ccc(-c4ccccc4[N+](=O)[O-])o3)S2)CC1 [Compound 8, 2-(4-methylpiperazin-1-yl)-7V-[(2£′,5Z)-5-{[5-(2-nitrophenyl)furan-2-yl]methylidene}-4-oxo-1,3-thiazolidin-2-ylidene]acetamide dihydrochloride]
- muscle strength, forelimb grip test [2]: significant force recovery
- average hanging time, wire test [4]: more significant than that of sham-injected mice or mice treated with PTC 124
- alanine aminotransferase (ALT) ([5]; compared to vehicle alone): decrease
- decrease in force (in percentage) following eccentric contractions ([11]; 30 mg/kg and 60 mg/kg three times per day up to one month): improvement if loss of force was detected
- decrement in force (in percentage) ([11]; 60 mg/kg three times per day, compared to vehicle only): significantly lower
- dystrophin expression in muscles [12]: higher levels of dystrophin expression than muscles obtained from mdx mice treated with PTC124
- number of dystrophin positive fibers [1]: No significant differences

- solubility [9, 16]: 0.18 mg/mL
Compound: O=C1N/C(=N\C(=O)C2CCNCC2)S/C1=C\c1ccc(-c2ccccc2[N+](=O)[O-])o1 [Compound 16, N-[(2ii,5Z)-5-{[5-(2-nitrophenyl)furan-2-yl]methylidene}-4-oxo-1,3-thiazolidin-2-ylidene]piperidine-4-carboxamide hydrochloride]
- number of dystrophin positive fibers [1]: compound 5 showed a significantly higher number of positive fibers

- solubility [9, 16]: 10 mg/mL
Compound: CN(C)CC(=O)/N=C1\NC(=O)/C(=C/c2ccc(-c3ccccc3[N+](=O)[O-])o2)S1 [Compound 12, (£)-N^2,N^2-dimethyl-7V-[(5Z)-5-{[5-(2-nitrophenyl)furan-2-yl]methylidene}-4-oxo-1,3-thiazolidin-2-ylidene]glycinamide hydrochloride]
- number of dystrophin positive fibers [1]: No significant differences

- level in heart [10]: not detected
- level in biceps [10]: not detected
- level in gastrocnemius [10]: not detected
- solubility [9]: low solubility
- dissolution in water ([9]; diluted to IL with water, vigorously stirred for up to 12 hr): did not appear to dissolve fully
- solubility [9, 16]: < 0.005 mg/mL
Compound: N=C1NC(=O)/C(=C/c2ccc(-c3ccccc3[N+](=O)[O-])o2)S1 [Compound 5, (5Z)-2-imino-5-([5-(2-nitrophenyl)furan-2-yl]methylidene)-1,3-thiazolidin-4-one]
- read-through of normal termination (stop) codons [3]: not read-through normal termination codons
- full-length dystrophin in mdx cells [13]: restored full-length dystrophin
- activity in A-T lymphoblastoid cell lines [14]: biological activity
- number of dystrophin positive fibers [1]: significantly higher number of positive fibers than muscles that received compounds 16 and 20
- Dystrophin protein detection in muscle groups ([15]; including diaphragm and heart): detected in all muscle groups analyzed
- creatine kinase (CK) levels ([15]; marker of muscle degeneration): decrease
- Dystrophin compared to PTC 124 ([15]; mdx mice): significantly higher
- muscle strength ([15]; over mice that did not receive the RTCs): significant increase in muscle strength
- dystrophin expression in skeletal muscles ([15]; systemic administration, mdx mice): restores functional levels of dystrophin expression
